Legend:
Lin28B = assay: Confocal microscopy, LIN28B level in K562 cells; format: cell-based, human; conditions: FAM labelled ORN3P1, 1 µM, 24 h
myc-Lin28A = assay: Ubiquitination assay of myc-Lin28A in 22Rv1 cells; format: cell-based; conditions: HA-Ub co-transfected, 500 nM, 48 h, anti-HA western blot after cMyc IP
Procedure: (§1) Next, we investigated the ability of ORN3P1 and ORN7P1 to mediate ubiquitination of Lin28 in cells, using a previously described protocol. ^[32] Cells from the prostate cancer cell line 22RV1, which express very low levels of Lin28, were co‐transfected with two plasmids expressing pCMV‐myc‐Lin28A and HA‐tagged polyubiquitin (HA‐Ub).
(§2) After 48 h of incubation with ORN3P1 and ORN7P1, the tagged Lin28 (and the control QKI) was immunoprecipitated using an anti‐Myc antibody. The isolated protein was then analyzed by western blotting using the anti‐HA and anti‐c‐Myc antibodies. Consistent with other previously described PROTAC reagents,[ ^32 , ^33 ]
(§3) The protein extracts (12-17 µg) were run on a 4-20% SDS-PAGE and transferred on a nitrocellulose blotting membrane 0.22 µm (GE Healthcare) using the Trans-Blot transfer device (Biorad). Membranes were blocked with 5% milk and incubated with the primary antibody overnight at 4 °C. Membranes were washed with 0.05% PBS-T and reacted with the secondary antibody for 1 h in 5% milk. The proteins were detected using the anti-lin28a antibody (Cell Signaling technology, D9F5), anti-lin28b antibody (Cell Signaling technology, 4196S), anti-rbfox1 (NovusBio, NBP2-13169SS), at 1:1000 and anti-hrnp c antibody […]
(§4) (Abcam, AB133607) at 1:10000 dilutions. […]
(§5) on a ChemiDoc MP imager (Biorad). The intensity of the signal was quantified using the ImageJ-Fiji software. […]

QKI (pDEST-Myc-QKI) = assay: Ubiquitination assay of Myc-QKI (negative control RBP) in 22Rv1 cells; format: cell-based; conditions: pDEST-Myc-QKI and HA-Ub, 500 nM, 48 h
Procedure: as §1, §2, §3, §4, §5

K562 cells [1] = assay: Intracellular uptake of FAM-labelled oligonucleotides, fluorescence microscopy; format: cell-based, human; conditions: FAM-conjugated, 1 µM, 24 h
K562 cells [2] = assay: Confocal microscopy, intracellular localization in K562 cells; format: cell-based, human; conditions: FAM labelled ORN3P1, 1 µM, 24 h
Lin28A = assay: Western blot of Lin28A in NT2/D1 cells; format: cell-based, human; conditions: 2 μM, three independent experiments
Excerpt: Finally, we tested RNA‐PROTACs for their ability to degrade their target in two cell lines: the embryonic NT2/D1 cell line, which expresses high levels of Lin28A, ^[13a] and K562 cells which express Lin28A and Lin28B. […] Finally, we co‐treated K562 cells with ORN3P1 and MG132, a reversible inhibitor of the 26S proteasome. […] In order to explore the versatility of RNA‐PROTACs with non peptide‐based VHL ligands, we conjugated small‐molecule VH032 ^[38] to ORN3 via an amino linker to yield ORN3VH032 (Figure S1). […]

CC[C@H](C)[C@H](NC(=O)[C@H](Cc1ccc(O)cc1)NC(=O)[C@@H]1C[C@@H](O)CN1C(=O)[C@H](C)NC(=O)[C@H](CC(C)C)NC(=O)CCCCCNC(=O)[C@@H](N)CSC1CC(=O)N(CCOP(=O)(S)OC[C@H]2O[C@@H](n3cnc4c(N)ncnc43)[C@H](OCCOC)[C@@H]2OP(=O)(S)OC[C@H]2O[C@@H](n3cnc4c(=O)[nH]c(N)nc43)[C@H](OCCOC)[C@@H]2OP(=O)(S)OC[C@H]2O[C@@H](n3cnc4c(=O)[nH]c(N)nc43)[C@H](OCCOC)[C@@H]2OP(=O)(S)OC[C@H]2O[C@@H](n3cnc4c(N)ncnc43)[C@H](OCCOC)[C@@H]2OP(=O)(S)OC[C@H]2O[C@@H](n3cnc4c(=O)[nH]c(N)nc43)[C@H](OCCOC)[C@@H]2OP(=O)(S)OC[C@H]2O[C@@H](n3cnc4c(N)ncnc43)[C@H](OCCOC)[C@@H]2OP(=O)(S)OC[C@H]2O[C@@H](n3cc(C)c(=O)[nH]c3=O)[C@H](OCCOC)[C@@H]2O)C1=O)C(=O)O (stereo partly drawn) [ORN3P1]
LIN28B by confocal microscopy (Lin28B): relatively unaffected
ubiquitination of myc-Lin28A (myc-Lin28A): showed a smear on the gel towards higher molecular weight
ubiquitination of QKI (QKI (pDEST-Myc-QKI)): showed no such effects
intracellular localization (K562 cells [1]): present in the cytoplasm and nuclei of K562 cells
intracellular presence by confocal microscopy (K562 cells [2]): in the cytoplasm and nuclei of K562 cells
reduction of Lin28A (Lin28A): ~50%
